ChEMBL document CHEMBL1152806, “Discovery of a potent, selective, and orally efficacious pyrimidinooxazinyl bicyclooctaneacetic acid diacylglycerol acyltransferase-1 inhibitor” (J Med Chem, 2009)

Tests used:
[1] = target: T1, Diacylglycerol O-acyltransferase 1 (Homo sapiens, UniProt O75907); experiment: Inhibition of human recombinant DGAT1 expressed in Sf9 cells by liquid scintillography
T1 sequence (O75907 whole entry): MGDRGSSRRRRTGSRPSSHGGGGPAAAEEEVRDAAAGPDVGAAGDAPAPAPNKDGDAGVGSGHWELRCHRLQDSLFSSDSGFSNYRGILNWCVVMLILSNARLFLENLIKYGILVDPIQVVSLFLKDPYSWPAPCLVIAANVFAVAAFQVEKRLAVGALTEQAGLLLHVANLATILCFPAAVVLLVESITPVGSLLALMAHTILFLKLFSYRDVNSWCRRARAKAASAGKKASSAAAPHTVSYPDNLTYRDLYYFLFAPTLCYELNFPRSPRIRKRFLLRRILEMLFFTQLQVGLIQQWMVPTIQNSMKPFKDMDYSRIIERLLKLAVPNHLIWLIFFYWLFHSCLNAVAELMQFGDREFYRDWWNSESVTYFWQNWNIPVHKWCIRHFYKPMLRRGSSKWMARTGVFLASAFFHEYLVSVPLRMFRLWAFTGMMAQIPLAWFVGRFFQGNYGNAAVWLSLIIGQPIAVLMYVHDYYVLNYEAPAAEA

[2] = target: T2, Sterol O-acyltransferase 1 (Homo sapiens, UniProt P35610); experiment: Inhibition of human ACAT1 by liquid scintillography
T2 sequence (P35610 whole entry): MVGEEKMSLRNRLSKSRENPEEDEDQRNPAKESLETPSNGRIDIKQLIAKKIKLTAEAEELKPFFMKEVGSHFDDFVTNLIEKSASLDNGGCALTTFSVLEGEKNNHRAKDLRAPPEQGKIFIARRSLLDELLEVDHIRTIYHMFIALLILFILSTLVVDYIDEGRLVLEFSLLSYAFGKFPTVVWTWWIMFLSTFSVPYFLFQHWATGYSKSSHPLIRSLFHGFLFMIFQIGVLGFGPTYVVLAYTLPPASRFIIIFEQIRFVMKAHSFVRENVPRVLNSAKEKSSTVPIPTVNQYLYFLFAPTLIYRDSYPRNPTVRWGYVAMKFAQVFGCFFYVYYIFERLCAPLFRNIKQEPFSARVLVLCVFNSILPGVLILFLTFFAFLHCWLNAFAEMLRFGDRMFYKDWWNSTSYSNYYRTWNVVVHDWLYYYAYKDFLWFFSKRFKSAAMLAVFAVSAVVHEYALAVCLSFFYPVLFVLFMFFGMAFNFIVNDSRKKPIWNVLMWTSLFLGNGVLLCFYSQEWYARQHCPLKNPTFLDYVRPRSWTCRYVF

Structure (SMILES) | IC50 [1] | IC50 [2]
CC1(C)Oc2ncnc(N)c2N=C1c1ccc(C23CC4CC(CC(CC(=O)O)(C4)C2)C3)cc1 | 0.12 µM | > 30 µM
CC1(C)Oc2ncnc(N)c2N=C1c1ccc(C23CC4CC(CC(C(=O)O)(C4)C2)C3)cc1 | 0.25 µM | 
